Reference: ChEMBL document CHEMBL1201862, “PubChem BioAssay data set” (2004)
Calls of active or inactive are those of the source.

Experiments:
[1] = molecular target: T1, Leucine aminopeptidase (Plasmodium falciparum 3D7, UniProt Q8IL11); experiment: P. falciparum M17LAP inhibitors, primary screen, biochemical, fluorogenic H-Leu-NHMec substrate, 1536-well (AID 1619); type: functional
T1 sequence (Q8IL11 whole entry): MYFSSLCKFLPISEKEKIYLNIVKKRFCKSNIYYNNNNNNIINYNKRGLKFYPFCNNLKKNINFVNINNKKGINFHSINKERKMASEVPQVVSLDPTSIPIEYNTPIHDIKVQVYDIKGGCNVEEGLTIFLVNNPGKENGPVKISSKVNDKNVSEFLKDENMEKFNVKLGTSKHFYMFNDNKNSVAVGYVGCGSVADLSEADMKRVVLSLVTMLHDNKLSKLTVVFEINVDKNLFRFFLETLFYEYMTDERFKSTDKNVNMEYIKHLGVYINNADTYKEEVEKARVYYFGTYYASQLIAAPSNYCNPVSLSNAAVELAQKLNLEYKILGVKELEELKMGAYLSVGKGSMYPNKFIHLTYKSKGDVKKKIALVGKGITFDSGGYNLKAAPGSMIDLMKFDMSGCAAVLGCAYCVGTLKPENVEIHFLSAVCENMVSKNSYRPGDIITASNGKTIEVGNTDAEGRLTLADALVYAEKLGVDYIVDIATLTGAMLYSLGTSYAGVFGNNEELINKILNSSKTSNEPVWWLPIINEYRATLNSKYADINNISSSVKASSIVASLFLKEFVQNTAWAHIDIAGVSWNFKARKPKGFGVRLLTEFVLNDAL

[2] = molecular target: Cytochrome P450 3A4 (Homo sapiens, UniProt P08684);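 further: CYP3A4 tested as one member of a cytochrome P450 panel screen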
Sequence of Cytochrome P450 3A4 (P08684 whole entry): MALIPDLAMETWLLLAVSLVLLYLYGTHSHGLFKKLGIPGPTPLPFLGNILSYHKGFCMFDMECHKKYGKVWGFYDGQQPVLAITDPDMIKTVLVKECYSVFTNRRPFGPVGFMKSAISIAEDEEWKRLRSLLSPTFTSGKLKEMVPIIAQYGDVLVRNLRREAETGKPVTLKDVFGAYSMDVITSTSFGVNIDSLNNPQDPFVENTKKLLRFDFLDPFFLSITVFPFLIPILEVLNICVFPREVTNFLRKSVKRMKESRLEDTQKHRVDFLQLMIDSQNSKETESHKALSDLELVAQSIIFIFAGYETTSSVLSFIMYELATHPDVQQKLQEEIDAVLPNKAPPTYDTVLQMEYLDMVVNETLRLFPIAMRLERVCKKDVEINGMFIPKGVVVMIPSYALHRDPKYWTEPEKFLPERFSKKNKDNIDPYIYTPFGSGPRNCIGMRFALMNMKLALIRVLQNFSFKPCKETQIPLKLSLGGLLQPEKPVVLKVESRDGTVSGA

[3] = molecular target: Cytochrome P450 2C9 (Homo sapiens, UniProt P11712)
Sequence of Cytochrome P450 2C9 (P11712 whole entry): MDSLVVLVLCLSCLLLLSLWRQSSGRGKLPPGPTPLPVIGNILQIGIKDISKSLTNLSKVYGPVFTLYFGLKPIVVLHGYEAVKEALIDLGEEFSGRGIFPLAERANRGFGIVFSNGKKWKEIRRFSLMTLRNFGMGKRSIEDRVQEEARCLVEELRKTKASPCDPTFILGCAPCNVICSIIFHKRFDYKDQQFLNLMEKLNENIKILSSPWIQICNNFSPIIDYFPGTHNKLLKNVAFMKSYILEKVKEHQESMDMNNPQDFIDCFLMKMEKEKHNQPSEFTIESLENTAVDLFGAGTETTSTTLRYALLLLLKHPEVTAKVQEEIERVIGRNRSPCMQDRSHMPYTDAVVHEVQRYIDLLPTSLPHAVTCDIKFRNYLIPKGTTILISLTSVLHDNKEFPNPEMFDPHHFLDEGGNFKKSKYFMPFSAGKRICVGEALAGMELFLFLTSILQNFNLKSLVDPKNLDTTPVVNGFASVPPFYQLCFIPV

[4] = HEK-293T viability loss after treatment – luminescence, T-cell screen hits, cytotoxicity control for TCR NF-kB inhibitor project, dose response (AID 489026); type: functional, cell-based;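 further: cells exposed to compound about 14 hours before the viability readout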
[5] = cells; type: functional, cell-based
[6] = cells; type: functional, cell-based; remark: listed apart in the source
[7] = Trypanosoma cruzi growth suppression in host cells – NIH3T3 host cells, beta-gal luminescence, confirmation (AID 2044); type: functional, cell-based;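 further: intracellular parasites grown in NIH/3T3 mouse fibroblasts as host cells; luminescent beta-galactosidase reporter signal from transgenic T. cruzi replicating inside host cells; inhibitors lower the luminescence signal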
[8] = molecular target: T2, Short transient receptor potential channel 4 (Mus musculus, UniProt Q9QUQ5); experiment: block of DAMGO-driven TRPC4 calcium entry – cell-based, HEK293 TRPC4/mu-opioid, Fluo-4 calcium, dose response (AID 434942); type: functional;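 further: potency of inhibitors blocking the TRPC4 calcium response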
T2 sequence (Q9QUQ5 whole entry): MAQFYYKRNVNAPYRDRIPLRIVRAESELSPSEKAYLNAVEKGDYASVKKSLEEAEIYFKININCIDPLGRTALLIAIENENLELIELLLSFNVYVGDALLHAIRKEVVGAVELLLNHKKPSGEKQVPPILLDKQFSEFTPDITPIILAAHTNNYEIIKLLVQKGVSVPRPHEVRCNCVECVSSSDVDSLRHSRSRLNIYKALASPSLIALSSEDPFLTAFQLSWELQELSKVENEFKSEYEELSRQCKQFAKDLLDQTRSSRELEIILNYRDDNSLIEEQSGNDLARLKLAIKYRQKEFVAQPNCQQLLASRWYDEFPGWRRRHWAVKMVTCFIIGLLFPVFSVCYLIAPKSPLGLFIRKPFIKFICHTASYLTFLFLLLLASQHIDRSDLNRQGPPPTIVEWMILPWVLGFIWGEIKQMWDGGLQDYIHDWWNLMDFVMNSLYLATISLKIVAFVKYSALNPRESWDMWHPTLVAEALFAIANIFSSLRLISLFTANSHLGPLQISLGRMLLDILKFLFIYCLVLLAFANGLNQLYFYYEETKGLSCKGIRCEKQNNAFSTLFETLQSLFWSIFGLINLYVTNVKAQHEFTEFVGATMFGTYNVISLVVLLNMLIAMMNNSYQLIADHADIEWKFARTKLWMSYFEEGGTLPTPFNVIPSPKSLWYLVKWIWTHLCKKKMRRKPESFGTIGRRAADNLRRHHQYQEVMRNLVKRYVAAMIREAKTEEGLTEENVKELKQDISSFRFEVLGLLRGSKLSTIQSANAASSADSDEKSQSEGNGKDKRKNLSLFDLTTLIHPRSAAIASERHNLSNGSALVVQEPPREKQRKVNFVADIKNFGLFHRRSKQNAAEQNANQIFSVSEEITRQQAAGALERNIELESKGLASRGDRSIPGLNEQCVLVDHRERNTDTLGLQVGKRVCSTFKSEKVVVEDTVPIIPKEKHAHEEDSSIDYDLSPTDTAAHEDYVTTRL

[9] = NIH3T3 cell viability loss – ATP luminescence, mouse fibroblasts, counter-screen, dose response (AID 2010); type: functional, cell-based;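 further: cells exposed to compound for about 90 hours before reading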
[10] = molecular target: T3, Cytochrome P450 1A2 (Homo sapiens, UniProt P05177);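 further: PubChem cytochrome P450 panel assay, CYP1A2 panel member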
T3 sequence (P05177 whole entry): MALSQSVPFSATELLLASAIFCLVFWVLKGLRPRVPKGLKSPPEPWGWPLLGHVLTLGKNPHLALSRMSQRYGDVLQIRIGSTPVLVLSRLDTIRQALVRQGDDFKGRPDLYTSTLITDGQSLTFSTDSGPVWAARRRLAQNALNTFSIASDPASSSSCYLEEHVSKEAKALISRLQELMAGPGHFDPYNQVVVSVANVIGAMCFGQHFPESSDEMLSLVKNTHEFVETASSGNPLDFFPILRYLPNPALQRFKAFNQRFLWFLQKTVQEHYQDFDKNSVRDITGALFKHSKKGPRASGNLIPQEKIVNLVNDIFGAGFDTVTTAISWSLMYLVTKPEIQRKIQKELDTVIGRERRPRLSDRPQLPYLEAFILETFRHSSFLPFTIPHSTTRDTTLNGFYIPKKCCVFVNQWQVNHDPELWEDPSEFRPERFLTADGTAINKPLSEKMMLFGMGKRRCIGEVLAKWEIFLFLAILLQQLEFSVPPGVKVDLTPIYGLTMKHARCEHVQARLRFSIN

[11] = molecular target: Cytochrome P450 2C19 (Homo sapiens, UniProt P33261); experiment: Cytochrome panel assay with activity outcomes. Panel member name: p450-cyp2c19 Compounds with AC50 equal or less than 10 uM are considered active; type: functional; settings: read-out: AC50
Sequence of Cytochrome P450 2C19 (P33261 whole entry): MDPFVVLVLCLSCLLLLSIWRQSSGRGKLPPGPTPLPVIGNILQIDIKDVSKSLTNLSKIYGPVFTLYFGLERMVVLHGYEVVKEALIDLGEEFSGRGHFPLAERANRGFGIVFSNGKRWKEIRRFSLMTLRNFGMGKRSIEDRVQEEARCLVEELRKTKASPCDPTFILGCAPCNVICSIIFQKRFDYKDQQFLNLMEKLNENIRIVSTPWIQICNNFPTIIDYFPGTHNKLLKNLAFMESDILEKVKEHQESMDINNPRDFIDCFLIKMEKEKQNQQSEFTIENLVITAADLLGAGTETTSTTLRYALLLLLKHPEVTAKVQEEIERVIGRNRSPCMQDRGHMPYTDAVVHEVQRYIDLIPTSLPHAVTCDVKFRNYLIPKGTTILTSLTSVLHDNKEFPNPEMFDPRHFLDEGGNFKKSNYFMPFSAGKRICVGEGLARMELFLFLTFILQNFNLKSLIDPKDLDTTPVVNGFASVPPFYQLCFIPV

[12] = molecular target: Glyceraldehyde-3-phosphate dehydrogenase (Homo sapiens, UniProt P04406)
Sequence of Glyceraldehyde-3-phosphate dehydrogenase (P04406 whole entry): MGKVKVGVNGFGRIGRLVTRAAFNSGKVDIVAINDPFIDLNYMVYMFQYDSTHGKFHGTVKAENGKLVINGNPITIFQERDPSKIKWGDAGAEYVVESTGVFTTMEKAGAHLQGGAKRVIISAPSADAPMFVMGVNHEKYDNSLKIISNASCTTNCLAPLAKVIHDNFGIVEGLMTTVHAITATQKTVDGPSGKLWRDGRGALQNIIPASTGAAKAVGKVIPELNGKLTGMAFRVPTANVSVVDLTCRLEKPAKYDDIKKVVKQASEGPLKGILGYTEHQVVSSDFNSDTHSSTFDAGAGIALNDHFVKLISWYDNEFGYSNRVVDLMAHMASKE

[13] = A549 cell cytotoxicity, dose response, cytotoxicity control, plate reader, cherry-pick, antagonist series (AID 743412); type: functional, cell-based
[14] = molecular target: T4, Alkaline phosphatase, tissue-nonspecific isozyme (Homo sapiens, UniProt P05186); experiment: potency against alkaline phosphatase TNAP – biochemical, luminescent, dose response, SAR follow-up (AID 1056)
T4 sequence (P05186 whole entry): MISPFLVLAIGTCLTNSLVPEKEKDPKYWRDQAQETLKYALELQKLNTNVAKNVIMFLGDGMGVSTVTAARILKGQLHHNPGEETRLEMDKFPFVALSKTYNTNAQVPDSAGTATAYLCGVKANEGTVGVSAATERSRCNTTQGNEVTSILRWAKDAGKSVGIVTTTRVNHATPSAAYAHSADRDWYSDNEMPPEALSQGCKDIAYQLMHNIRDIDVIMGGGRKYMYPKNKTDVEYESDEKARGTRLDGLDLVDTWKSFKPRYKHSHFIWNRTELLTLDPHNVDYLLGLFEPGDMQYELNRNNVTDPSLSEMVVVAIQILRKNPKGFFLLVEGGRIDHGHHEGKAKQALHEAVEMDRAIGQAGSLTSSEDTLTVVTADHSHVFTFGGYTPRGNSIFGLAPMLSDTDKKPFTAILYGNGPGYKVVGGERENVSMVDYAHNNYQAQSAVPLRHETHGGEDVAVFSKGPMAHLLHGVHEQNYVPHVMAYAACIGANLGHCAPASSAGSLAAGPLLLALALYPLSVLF

[15] = molecular target: T5, Streptokinase A (Streptococcus pyogenes serotype M1, UniProt P10520); experiment: viability-normalized secreted streptokinase activity reduction – plasminogen activation absorbance, OD405, dose response (AID 1914); type: functional, Streptococcus pyogenes M1 GAS;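 further: secreted streptokinase activity via plasminogen activation per viability signal from cell pellet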
T5 sequence (P10520 whole entry): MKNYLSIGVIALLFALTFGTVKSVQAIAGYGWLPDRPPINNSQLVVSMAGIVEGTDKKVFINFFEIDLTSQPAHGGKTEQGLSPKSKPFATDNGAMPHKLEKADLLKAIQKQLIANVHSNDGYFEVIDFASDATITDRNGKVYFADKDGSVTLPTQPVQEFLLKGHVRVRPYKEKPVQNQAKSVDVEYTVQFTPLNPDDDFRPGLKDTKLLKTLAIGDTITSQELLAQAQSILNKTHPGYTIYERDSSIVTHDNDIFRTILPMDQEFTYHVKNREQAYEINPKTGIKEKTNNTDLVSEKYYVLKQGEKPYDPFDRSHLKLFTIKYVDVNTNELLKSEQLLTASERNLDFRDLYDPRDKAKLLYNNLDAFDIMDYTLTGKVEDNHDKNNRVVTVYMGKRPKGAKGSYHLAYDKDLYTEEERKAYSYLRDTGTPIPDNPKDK

[16] = molecular target: T6, Histone-lysine N-methyltransferase NSD2 (Homo sapiens, UniProt O96028); type: biochemical
T6 sequence (O96028 whole entry): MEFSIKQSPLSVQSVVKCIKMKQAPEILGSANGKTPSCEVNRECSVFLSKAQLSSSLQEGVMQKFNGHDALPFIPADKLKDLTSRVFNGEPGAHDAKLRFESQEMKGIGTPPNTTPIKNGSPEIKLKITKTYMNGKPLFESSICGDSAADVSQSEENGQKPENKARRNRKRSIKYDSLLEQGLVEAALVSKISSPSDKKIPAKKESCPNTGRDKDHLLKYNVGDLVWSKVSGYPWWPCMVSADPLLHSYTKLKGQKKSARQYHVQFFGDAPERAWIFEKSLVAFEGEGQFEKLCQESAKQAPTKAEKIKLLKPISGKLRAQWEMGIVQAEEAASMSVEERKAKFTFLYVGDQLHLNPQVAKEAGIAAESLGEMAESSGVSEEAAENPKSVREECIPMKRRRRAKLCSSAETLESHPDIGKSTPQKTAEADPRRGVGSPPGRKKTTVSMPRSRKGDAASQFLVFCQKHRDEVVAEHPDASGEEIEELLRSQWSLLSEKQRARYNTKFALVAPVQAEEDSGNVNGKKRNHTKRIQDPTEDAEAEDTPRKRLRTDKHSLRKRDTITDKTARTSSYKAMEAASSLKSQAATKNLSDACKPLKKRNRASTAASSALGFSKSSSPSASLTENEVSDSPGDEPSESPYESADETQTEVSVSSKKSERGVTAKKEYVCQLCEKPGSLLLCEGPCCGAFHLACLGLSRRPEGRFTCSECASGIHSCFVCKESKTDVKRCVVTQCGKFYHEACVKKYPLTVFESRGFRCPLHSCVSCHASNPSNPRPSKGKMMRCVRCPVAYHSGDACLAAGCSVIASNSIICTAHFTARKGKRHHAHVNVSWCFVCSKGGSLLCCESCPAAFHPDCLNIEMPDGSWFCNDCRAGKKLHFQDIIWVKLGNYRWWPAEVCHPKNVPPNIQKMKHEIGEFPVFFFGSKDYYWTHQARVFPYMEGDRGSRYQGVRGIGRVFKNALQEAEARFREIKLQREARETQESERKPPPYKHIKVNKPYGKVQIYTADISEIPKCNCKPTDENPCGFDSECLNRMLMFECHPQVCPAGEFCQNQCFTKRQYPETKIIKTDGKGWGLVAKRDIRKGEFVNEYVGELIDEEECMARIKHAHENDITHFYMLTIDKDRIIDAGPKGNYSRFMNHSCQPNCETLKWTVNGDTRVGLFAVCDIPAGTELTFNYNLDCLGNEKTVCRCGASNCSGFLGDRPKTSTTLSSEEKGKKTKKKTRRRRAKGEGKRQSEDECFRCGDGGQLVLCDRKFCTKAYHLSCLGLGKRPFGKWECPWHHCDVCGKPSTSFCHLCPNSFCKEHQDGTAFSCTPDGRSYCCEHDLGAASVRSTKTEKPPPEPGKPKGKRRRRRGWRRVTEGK

## CC1=C(C)CC(C(=O)Nc2nc(-c3ccc(C)cc3C)c(C)s2)C(C(=O)O)C1 (configuration not stated)
[1]
  IC50: 3.71 µM (active)

## O=C(CCNC(=O)Cn1ccc2ccccc2c1=O)NCCCN1CCN(c2ccc(F)cc2)CC1
[2]
  AC50: inconclusive

## C[C@H]1CCCC=CC2C[C@H](OC(=O)CN(C)C)C[C@@H]2[C@@H](O)/C=C\C(=O)O1 (some centres not stated)
[2]
  AC50: inconclusive
[3]
  AC50: inconclusive

## CC(C)Nc1ccc(C(CC(N)=O)NC(=O)c2ccc(Br)cc2)cc1[N+](=O)[O-] (configuration not stated)
[4]
  IC50: > 80 µM (inactive)

## COc1ccc(N2CCN(C(=O)C3COc4ccccc4O3)CC2)cc1 (configuration not stated)
[5]
  EC50: > 350 µM (not active)
[6]
  EC50: > 350 µM (not active)

## CN1/C(=C\C(=O)C[n+]2ccc3ccccc3c2)C(C)(C)c2ccccc21
[7]
  EC50: 0.505 µM (active)
[8]
  EC50: 5.31 µM (active)
[9]
  EC50: > 60 µM (not active)
[4]
  IC50: > 80 µM (inactive)

## O=C(Oc1ccccc1)N1CCC2(CC1)CN(c1ccccc1)C2
[10]
  AC50: 15.8 µM (inconclusive)
[2]
  AC50: inconclusive
[11]
  AC50: 15.8 µM (inconclusive)

## COC(=O)C1Nc2cc(C(F)(F)F)ccc2S(=O)(=O)N1 (configuration not stated)
[12]
  IC50: > 100 µM (not active)

## Cc1cc(C(=O)OCC(=O)N2C(C)CCCC2C)c(C)o1 (configuration not stated)
[1]
  IC50: 14.3 µM (active)

## C[C@@H]1CN([C@@H](C)CO)S(=O)(=O)c2ccc(C3=CCCC3)cc2O[C@H]1CN(C)C(=O)c1ccccc1
[13]
  AC50: 38.9 µM (active)

## CC(C)N(C(C)C)S(=O)(=O)c1ccc(N2CCc3ccccc3C2)nc1
[5]
  EC50: > 350 µM (not active)
[6]
  EC50: > 350 µM (not active)

## COc1ccc(NC(=O)N2CCC3(CC2)CCN(C(=O)c2cccn2C)CC3)cc1
[2]
  AC50: inconclusive

## COc1ccc(Cl)c(OC)c1C(=O)NC(=O)Nc1c(F)cc(F)cc1F
[5]
  EC50: > 350 µM (not active)
[6]
  EC50: > 350 µM (not active)

## CCc1ccc(-c2cc(C(=O)O)[nH]n2)cc1
[14]
  IC50: 17.6 µM (active)
[12]
  IC50: > 100 µM (not active)

## CN(C(=O)CSc1nc(-c2ccc(C(C)(C)C)cc2)c(C#N)c(=O)[nH]1)C1CCCCC1
[15]
  EC50: > 150 µM (not active)
[8]
  EC50: 9.44 µM (active)
[16]
  AC50: 12.6 µM (active)
